This is an account of results in US20240400555A1 (Initial Therapeutics, Inc., priority 2023, published 2024).

pIC50: −log10 of the molar value.

The assay concerns MV-4-11 cells. Briefly: Cell Viability Assay in MV-4-11 Cells. Format: cell-based. Particulars: Homo sapiens, MV4-11, 72 h, MV-4-11 cells, 72 h, Cell-Titer Glo; read-out: IC50. Summed up: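 Luminescent ATP read-out (CellTiter-Glo) after 72 h compound treatment of MV-4-11 leukaemia cells (7,000 per well, IMDM plus 10% FBS). Values expressed relative to DMSO control and derived by four-parameter non-linear regression.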
Turning to `Cc1cccc2ccnc(N(C(=O)c3ccc(Nc4nccc(N5CCOC[C@H]5CO)n4)cc3F)[C@@H]3CCCNC3)c12` [Example 942, 2-fluoro-4-((4-((R)-3-(hydroxymethyl)morpholino)pyrimidin-2-yl)amino)-N-(8-methylisoquinolin-1-yl)-N—((R)-piperidin-3-yl)benzamide], the negative logarithm of the IC50 (pIC50) (commonly the negative decadic logarithm of the IC50, by convention in mol/L) was 7.06.
Consider `COC[C@@H]1COCCN1c1ccnc(Nc2ccc(C(=O)N(c3nccc4cccc(C)c34)[C@@H]3CCCNC3)c(F)c2)n1` [Example 943, 2-fluoro-4-(4-((R)-3-(methoxymethyl)morpholino)pyrimidin-2-ylamino)-N-(8-methylisoquinolin-1-yl)-N—((R)-piperidin-3-yl)benzamide], for which the pIC50 is 7.10.
For `Cc1cccc2ccnc(N(C(=O)c3ccc(Nc4nccc(N5CCCOCC5)n4)cc3F)[C@@H]3CCCNC3)c12` [Example 944, (R)-4-(4-(1,4-oxazepan-4-yl)pyrimidin-2-ylamino)-2-fluoro-N-(8-methylisoquinolin-1-yl)-N-(piperidin-3-yl)benzamide] the value was 7.34; for `COC(=O)[C@@H]1COCCN1c1ccnc(Nc2ccc(C(=O)N(c3nccc4cccc(C)c34)[C@@H]3CCCNC3)c(F)c2)n1` [Example 945, methyl(S)-4-(2-((3-fluoro-4-((8-methylisoquinolin-1-yl)((R)-piperidin-3-yl)carbamoyl)phenyl)amino)pyrimidin-4-yl)morpholine-3-carboxylate], 7.33; for `Cc1cccc2ccnc(N(C(=O)c3ccc(Nc4nccc(N[C@H]5CC[C@H](O)CC5)n4)cc3F)[C@@H]3CCCNC3)c12` [Example 946, 2-fluoro-4-(4-((1r,4r)-4-hydroxycyclohexylamino)pyrimidin-2-ylamino)-N-(8-methylisoquinolin-1-yl)-N—((R)-piperidin-3-yl)benzamide], 6.89.
For `Cc1cccc2ccnc(N(C(=O)c3ccc(Nc4nccc(N5CCC(=O)C5)n4)cc3F)[C@@H]3CCCNC3)c12` [Example 947, (R)-2-fluoro-N-(8-methylisoquinolin-1-yl)-4-((4-(3-oxopyrrolidin-1-yl)pyrimidin-2-yl)amino)-N-(piperidin-3-yl)benzamide] the value was 7.46; for `Cc1cccc2ccnc(N(C(=O)c3ccc(Nc4nccc(N(C)C5CCCC5)n4)cc3F)[C@@H]3CCCNC3)c12` [Example 948, 4-({4-[cyclopentyl(methyl)amino]pyrimidin-2-yl}amino)-2-fluoro-N-(8-methylisoquinolin-1-yl)-N-[(3R)-piperidin-3-yl]benzamide], 6.82; for `Cc1cccc2ccnc(N(C(=O)c3ccc(Nc4nccc(N(C)CCC#N)n4)cc3F)[C@@H]3CCCNC3)c12` [Example 949, (R)-4-((4-((2-cyanoethyl)(methyl)amino)pyrimidin-2-yl)amino)-2-fluoro-N-(8-methylisoquinolin-1-yl)-N-(piperidin-3-yl)benzamide], 6.60.
Turning to `Cc1cccc2ccnc(N(C(=O)c3ccc(Nc4nccc(NCC#N)n4)cc3F)[C@@H]3CCCNC3)c12` [Example 950, (R)-4-((4-((cyanomethyl)amino)pyrimidin-2-yl)amino)-2-fluoro-N-(8-methylisoquinolin-1-yl)-N-(piperidin-3-yl)benzamide], the negative logarithm of the IC50 (pIC50) is 7.29.
Consider `COc1ccnc(Nc2ccc(C(=O)N(c3nccc4cccc(C)c34)[C@@H]3CCCNC3)c(F)c2)n1` [Example 951, 2-fluoro-4-[(4-methoxypyrimidin-2-yl)amino]-N-(8-methylisoquinolin-1-yl)-N-[(3R)-piperidin-3-yl]benzamide], for which the negative-log IC50 (pIC50) was 7.00.
Turning to `CCC(C)N(C)c1ccnc(Nc2ccc(C(=O)N(c3nccc4cccc(C)c34)[C@@H]3CCCNC3)c(F)c2)n1` (stereo partly drawn) [Example 952, 4-((4-(sec-butyl(methyl)amino)pyrimidin-2-yl)amino)-2-fluoro-N-(8-methylisoquinolin-1-yl)-N—((R)-piperidin-3-yl)benzamide], the pIC50 is 6.89.
The figure for `Cc1cccc2ccnc(N(C(=O)c3ccc(Nc4nccnn4)cc3F)[C@@H]3CCCNC3)c12` [Example 953, (R)-4-(1,2,4-triazin-3-ylamino)-2-fluoro-N-(8-methylisoquinolin-1-yl)-N-(piperidin-3-yl)benzamide] is 7.00; for `Cc1cccc2ccnc(N(C(=O)c3ccc(Nc4nccc(NC5CCOCC5)n4)cc3F)[C@@H]3CCCNC3)c12` [Example 954, (R)-2-fluoro-N-(8-methylisoquinolin-1-yl)-N-(piperidin-3-yl)-4-((4-((tetrahydro-2H-pyran-4-yl)amino)pyrimidin-2-yl)amino)benzamide] it is 7.51.
For `Cc1cccc2ccnc(N(C(=O)c3ccc(Nc4nccc(N5CCOCC5C#N)n4)cc3F)[C@@H]3CCCNC3)c12` (stereo partly drawn) [Example 955, 4-((4-(3-cyanomorpholino)pyrimidin-2-yl)amino)-2-fluoro-N-(8-methylisoquinolin-1-yl)-N—((R)-piperidin-3-yl)benzamide] the value was 7.59.
In the case of `Cc1cccc2ccnc(N(C(=O)c3ccc(Nc4nccc(N5CCOCC5CN(C)C)n4)cc3F)[C@@H]3CCCNC3)c12` (stereo partly drawn) [Example 956, 4-(4-(3-((dimethylamino)methyl)morpholino)pyrimidin-2-ylamino)-2-fluoro-N-(8-methylisoquinolin-1-yl)-N—((R)-piperidin-3-yl)benzamide], the negative logarithm of the IC50 (pIC50) was 6.44.
Take `Cc1cccc2ccnc(N(C(=O)c3ccc(Nc4nccc(N(C)C5CCOCC5)n4)cc3F)[C@@H]3CCCNC3)c12` [Example 957, (R)-2-fluoro-4-(4-(methyl(tetrahydro-2H-pyran-4-yl)amino)pyrimidin-2-ylamino)-N-(8-methylisoquinolin-1-yl)-N-(piperidin-3-yl)benzamide]: the pIC50 is 7.64.
For `Cc1cccc2ccnc(N(C(=O)c3ccc(Nc4nccc(N5CCOCC5c5cccnc5)n4)cc3F)[C@@H]3CCCNC3)c12` (stereo partly drawn) [Example 958, 2-fluoro-N-(8-methylisoquinolin-1-yl)-N—((R)-piperidin-3-yl)-4-((4-(3-(pyridin-3-yl)morpholino)pyrimidin-2-yl)amino)benzamide] the value was 7.33.
For the compound `Cc1cccc2ccnc(N(C(=O)c3ccc(Nc4nccc(N5CCCC[C@H]5C)n4)cc3F)[C@@H]3CCCNC3)c12` [Example 959, 2-fluoro-N-(8-methylisoquinolin-1-yl)-4-({4-[(2R)-2-methylpiperidin-1-yl]pyrimidin-2-yl}amino)-N-[(3R)-piperidin-3-yl]benzamide], the pIC50 was 6.72.
`Cc1cccc2ccnc(N(C(=O)c3ccc(Nc4nccc(N5CCCC[C@H]5CO)n4)cc3F)[C@@H]3CCCNC3)c12` [Example 960, 2-fluoro-4-((4-((S)-2-(hydroxymethyl)piperidin-1-yl)pyrimidin-2-yl)amino)-N-(8-methylisoquinolin-1-yl)-N—((R)-piperidin-3-yl)benzamide]: the negative logarithm of the IC50 (pIC50) was 6.96.
For `Cc1cccc2ccnc(N(C(=O)c3ccc(Nc4nccc(CN5CCCC5)n4)cc3F)[C@@H]3CCCNC3)c12` [Example 961, (R)-2-fluoro-N-(8-methylisoquinolin-1-yl)-N-(piperidin-3-yl)-4-((4-(pyrrolidin-1-ylmethyl)pyrimidin-2-yl)amino)benzamide] the value was 7.42.
